Results published in US20250195536A1, “BICYCLOOCTANE KRAS INHIBITORS” (Incyte Corporation, priority 2023, published 2025).

Experiments:
KRAS G12D = KRAS G12D (Homo sapiens, UniProt P01116, G12D); assay: GDP-GTP exchange assay (KRAS G12D); type: biochemical; conditions: bodipy-GDP/GppNHp exchange with SOS1; 4 h pre-incubation, 2 h reaction;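 note: one dagger IC50 up to 100 nM and two daggers above 100 nM up to 1 μM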
How it was run: (§1)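 Bodipy-GDP-loaded KRAS (2.5 nM final) was pre-incubated 4 h at r.t. with inhibitor in Hepes pH 7.5 buffer with MgCl2, then exchange started with GppNHp (500 μM) and SOS1 (150 nM) final. Fluorescence (ex 485/em 520 nm) read after 2 h for G12D, 3 h for G12V; IC50 from four-parameter logistic fit.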

KRAS G12V = KRAS G12V (Homo sapiens, UniProt P01116, G12V); assay: GDP-GTP exchange assay (KRAS G12V); type: biochemical; conditions: bodipy-GDP/GppNHp exchange with SOS1; 3 h incubation after GppNHp-SOS1;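 note: one dagger IC50 up to 100 nM and two daggers above 100 nM up to 1 μM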
Sequence of KRAS G12V (P01116 1-188 isoform P01116-2 G12V): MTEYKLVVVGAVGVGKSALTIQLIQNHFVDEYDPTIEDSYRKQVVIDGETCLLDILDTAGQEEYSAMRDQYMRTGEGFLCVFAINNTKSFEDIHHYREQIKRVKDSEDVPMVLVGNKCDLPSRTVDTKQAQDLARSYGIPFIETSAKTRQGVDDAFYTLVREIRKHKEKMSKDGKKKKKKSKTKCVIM
How it was run: as §1

[1] = Caco2 assay (permeability, Papp A-B); type: in vitro ADME; conditions: human, Caco-2, absorptive direction (A-B), 50 μM test compound, 4% BSA in receiver
How it was run: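 Caco-2 monolayers, 22-25 days on Transwells, TEER 300 Ω·cm^2, dosed apically with 50 μM compound in HBSS; basolateral HBSS with 4% BSA. 120 min at 37 °C, samples quantified by LCMS; Papp (A-B) from receiver-side cumulative flux slope, donor volume, surface area and initial donor amount.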

Sequence of KRAS G12D (P01116 1-188 isoform P01116-2 G12D): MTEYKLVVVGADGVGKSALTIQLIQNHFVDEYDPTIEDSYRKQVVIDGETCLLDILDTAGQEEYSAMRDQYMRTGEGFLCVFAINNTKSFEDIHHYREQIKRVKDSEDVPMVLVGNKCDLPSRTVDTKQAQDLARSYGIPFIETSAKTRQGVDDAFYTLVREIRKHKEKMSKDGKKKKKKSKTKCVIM

| Compound | G12D_exchange (KRAS_G12D exchange assay IC50) (KRAS G12D) | G12V_exchange (KRAS_G12V exchange assay IC50) (KRAS G12V) | Papp A→B at 120 min, 50 μM [1] |
| --- | --- | --- | --- |
| Cc1cc(N2C[C@@H]3C[C@H](C2)N(C(=O)C2CC2)[C@H]3c2cc3c(C)nc4c(F)c(-c5cccc(Cl)c5Cl)c(CCC#N)cc4c3n2[C@H]2[C@H]3CN[C@@H]2C3)cc(C(F)F)n1 (atropisomer, axis not shown; (Ra)) [Example 84, 3-((Ra)-1-((1R,4R,5S)-2-azabicyclo[2.1.1]hexan-5-yl)-2-((1S,5R,7R)-6-(cyclopropanecarbonyl)-3-(2-(difluoromethyl)-6-methylpyridin-4-yl)-3,6-diazabicyclo[3.2.1]octan-7-yl)-7-(2,3-dichlorophenyl)-6-fluoro-4-methyl-1H-pyrrolo[3,2-c]quinolin-8-yl)propanenitrile] | † | † | ≤ 0.5 ×10⁻⁶ cm/s |
| Cc1nc2c(F)c(-c3cccc(Cl)c3Cl)c(CCC#N)cc2c2c1cc([C@H]1[C@H]3C[C@H](CN(c4cc(C(F)F)c(F)cn4)C3)N1C(=O)C1CC1)n2[C@H]1[C@H]2CN[C@@H]1C2 (atropisomer, axis not shown; (Ra)) [Example 85, 3-((Ra)-1-((1R,4R,5S)-2-azabicyclo[2.1.1]hexan-5-yl)-2-((1S,5R,7R)-6-(cyclopropanecarbonyl)-3-(4-(difluoromethyl)-5-fluoropyridin-2-yl)-3,6-diazabicyclo[3.2.1]octan-7-yl)-7-(2,3-dichlorophenyl)-6-fluoro-4-methyl-1H-pyrrolo[3,2-c]quinolin-8-yl)propanenitrile] | † | † | ≤ 0.5 ×10⁻⁶ cm/s |
| Cc1nc2c(F)c(-c3cccc(Cl)c3Cl)c(CCC#N)cc2c2c1cc([C@H]1[C@H]3C[C@H](CN(c4cccc(OC(F)F)n4)C3)N1C(=O)C1CC1)n2[C@H]1[C@H]2CN[C@@H]1C2 (atropisomer, axis not shown; (Ra)) [Example 86, 3-((Ra)-1-((1R,4R,5S)-2-azabicyclo[2.1.1]hexan-5-yl)-2-((1S,5R,7R)-6-(cyclopropanecarbonyl)-3-(6-(difluoromethoxy)pyridin-2-yl)-3,6-diazabicyclo[3.2.1]octan-7-yl)-7-(2,3-dichlorophenyl)-6-fluoro-4-methyl-1H-pyrrolo[3,2-c]quinolin-8-yl)propanenitrile] | † | † | ≤ 0.5 ×10⁻⁶ cm/s |
| Cc1nc2c(F)c(-c3cccc(Cl)c3Cl)c(CCC#N)cc2c2c1cc([C@H]1[C@H]3C[C@H](CN(c4nccc(C(F)F)n4)C3)N1C(=O)C1CC1)n2[C@H]1[C@H]2CN[C@@H]1C2 (atropisomer, axis not shown; (Ra)) [Example 87, 3-((Ra)-1-((1R,4R,5S)-2-azabicyclo[2.1.1]hexan-5-yl)-2-((1S,5R,7R)-6-(cyclopropanecarbonyl)-3-(4-(difluoromethyl)pyrimidin-2-yl)-3,6-diazabicyclo[3.2.1]octan-7-yl)-7-(2,3-dichlorophenyl)-6-fluoro-4-methyl-1H-pyrrolo[3,2-c]quinolin-8-yl)propanenitrile] | † | † | ≤ 0.5 ×10⁻⁶ cm/s |
| Cc1nc2c(F)c(-c3cccc(Cl)c3Cl)c(CCC#N)cc2c2c1cc([C@H]1[C@H]3C[C@H](CN(c4cccc(C(F)F)n4)C3)N1C(=O)C1CC1)n2[C@H]1[C@H]2CN[C@@H]1C2 (atropisomer, axis not shown; (Ra)) [Example 88, 3-((Ra)-1-((1R,4R,5S)-2-azabicyclo[2.1.1]hexan-5-yl)-2-((1S,5R,7R)-6-(cyclopropanecarbonyl)-3-(6-(difluoromethyl)pyridin-2-yl)-3,6-diazabicyclo[3.2.1]octan-7-yl)-7-(2,3-dichlorophenyl)-6-fluoro-4-methyl-1H-pyrrolo[3,2-c]quinolin-8-yl)propanenitrile] | † | † | ≤ 0.5 ×10⁻⁶ cm/s |
